Laboratory results reported in paper PMC12040169 (PLOS Biology, 2025).

experiment: in vitro; settings: human, hela cells, % viability

Row | Structure (SMILES) | viability at 28.5 h, 10 µM [%]
1 | O=C(NCCN1CCCCC1)C1CC(=O)N(Cc2ccncc2)C1 (stereo not drawn) [CBK306629] | 100
2 | COc1ccc(CNc2cccc(C(=O)O)c2C)cc1OC [CBK269634] | 109
3 | CC(=O)Nc1cc(NC(C)=O)c(C)c(C(=O)O)c1 [CBK286623] | 88.6
4 | Nc1ncc(-c2cccc(OC(F)(F)F)c2)nc1N1CCN(CCO)CC1 [CBK063435] | 94.9
5 | CN1CCC(N(C)C(=O)c2cc3oc(-c4ccccc4)nc3c(=O)n2C)C1 (stereo not drawn) [CBK200424T] | 93.9
6 | COc1ccc(OC)c(NC(=O)CC2NCCNC2=O)c1 (stereo not drawn) [CBK266477] | 95.9
7 | COC(=O)COc1ccc(S(=O)(=O)N2CCC(C(N)=O)CC2)cc1 [CBK265993] | 96.7
8 | COc1ccc(C(=O)Nc2ccc(C3c4ccsc4CCN3C(C)=O)cc2)cc1 (stereo not drawn) [CBK286465] | 85
9 | Cc1cc(COc2cc(NC(C)C)ncn2)no1 [CBK115887] | 92.7
10 | Cc1ccc(NC(=O)c2ccc(-c3ccccc3)cc2)c(OC(=O)c2ccc(-c3ccccc3)cc2)c1 [CBK261347] | 98.9
11 | CC(C)(C)OC(=O)N1CCCC2(CCCN(C(=O)c3ccco3)C2)C1 (stereo not drawn) [CBK284463] | 94.7
12 | COc1ccc(Cn2cnc3[nH]ncc3c2=O)cc1 [CBK288049] | 91.7
13 | NC(=O)COc1ccccc1O [CBK261029] | 111
14 | C=CCOc1nc2c(=O)[nH]c(/N=C/N(C)C)nc2n1C1CC(O)C(CO)O1 (stereo not drawn) [CBK201299] | 93.3
15 | C/C(=N\O)c1ccc(S(N)(=O)=O)cc1 [CBK007871] | 100
16 | COc1cc(CNC(=O)N2CCN(CCc3ccccc3)CC2)cc(OC)c1OC [CBK158910] | 91.8
17 | Cc1ccc(N2C(=O)c3ccc(C(=O)OCc4ccc([N+](=O)[O-])cc4)cc3C2=O)cc1Cl [CBK265730] | 103
18 | COc1ccc(NC(=O)c2csc(Nc3ccccc3)n2)cc1OC [CBK287840] | 83.7
19 | CC(=O)NCCN(Cc1ccc(S(=O)(=O)N2CCOC2=O)cc1)Cc1ccoc1 [CBK024460] | 110
20 | CCC(NS(=O)(=O)c1ccc(OC)cc1)C(=O)O (stereo not drawn) [CBK264509] | 100
21 | Cc1cc(Cl)cc(Br)c1OCCN1CCN(C)CC1 [CBK269668C] | 93.9
22 | CCN1CCN(C(=O)c2ccc(CN(c3ccc(C)c(C)c3)S(C)(=O)=O)cc2)CC1 [CBK267132] | 92.6

Row | Structure (SMILES) | viability at 28.5 h, 10 µM [%]
23 | CC(C)Oc1cncc(Cl)n1 [CBK113321] | 106
24 | Cc1ccccc1CN1CCN(CC2CC3C=CC2C3)CC1 (stereo not drawn) [CBK263402] | 88
25 | COc1ccc(-n2cc(-c3ccncc3)nn2)cc1OC [CBK113106] | 109
26 | CC(Oc1ccc(F)cc1)C(=O)N1CCCc2c(cnn2C)C1 (stereo not drawn) [CBK285230] | 82.1
27 | Cc1ccc(S(=O)(=O)NCC(=O)N2CCOCC2)cc1[N+](=O)[O-] [CBK050597] | 98.1
28 | O=C(Cc1cccc(F)c1)N1CCOCC1 [CBK058928] | 83.9
29 | CS(=O)(=O)NC1CCN(S(=O)(=O)c2cc(Cl)cc(Cl)c2)CC1 [CBK306082] | 84.3
30 | O=C(O)c1cc(C(=O)O)cc(N2C(=O)C3C4C=CC(C4)C3C2=O)c1 (stereo not drawn) [CBK261193] | 97.5
31 | O=C(Nc1ccc2c(c1)C(=O)NC2=O)c1ccccc1 [CBK270384] | 86.5
32 | S=C(NCc1ccccc1)Nc1ccccc1 [CBK091617] | 105
33 | COc1ccc(F)c(CN(CC(C)(C)CN)C(=O)Nc2ccc(C(C)(C)C)cc2)c1 [CBK002461C] | 94
34 | Cn1c(=O)c2c(O)cc(=O)oc2c2ccccc21 [CBK003546] | 93.3
35 | O=C(O)CCC(=O)Nc1ccc(Br)cc1C(=O)c1ccc(Cl)cc1 [CBK262601] | 86.7
36 | O=C(NCCC1SC(NC2CCCCCC2)=NC1=O)Nc1ccc(C(F)(F)F)cc1Cl (stereo not drawn) [CBK067682] | 89.9
37 | COc1ccc2c(c1)CC1(CCC(NCCCC(=O)c3ccc(F)cc3)CC1)C2 (stereo not drawn) [CBK016054C] | 87.1
38 | O=C(NC(Cc1cccs1)c1nccs1)C1CSCN1 (stereo not drawn) [CBK284805] | 91.4
39 | CN1CCN([C@H]2[C@@H]3OC[C@@H](O3)[C@@H](NCc3ccc(N(C)C)cc3)[C@@H]2O)CC1 [CBK288824] | 109
40 | CN(C)CCNc1nccc2sc(S(=O)(=O)NCCC3=CCCCC3)cc12 [CBK038244C] | 108
41 | COc1ccc(C(NC(=O)c2ccc(N3C(=O)CCC3=O)cc2)c2ccccc2)cc1 (stereo not drawn) [CBK285737] | 93
42 | Cc1ccc(S(=O)(=O)NCCc2nc3ccccc3n2C)s1 [CBK281398] | 81.5
43 | CCC1CCCCN1C(=O)c1ccc(C)c(Br)c1 (stereo not drawn) [CBK081559] | 100
44 | Cc1ccc(S(=O)(=O)N2CCC(OC(N)=O)CC2)cc1 [CBK003369] | 106

Row | Structure (SMILES) | viability at 28.5 h, 10 µM [%]
45 | Nc1cc2cccnc2c(-c2cccc(C(F)(F)F)c2)n1 [CBK081177] | 106
46 | CN(C)C(=O)Cn1nc(-c2cc3c(s2)CCC3)oc1=O [CBK284715] | 99
47 | O=C(CCCc1c[nH]c2ccccc12)Nc1cccc(C(=O)O)c1 [CBK287175] | 104
48 | CN(C)C(CNS(=O)(=O)c1cc2c(cc1Br)NC(=O)CO2)c1ccc(F)cc1 (stereo not drawn) [CBK298296] | 105
49 | O=C(Cc1cn2ccsc2n1)NCCS(=O)(=O)N1CCc2ccccc21 [CBK304282] | 75.4
50 | O=C(Nc1cccc(F)c1)N1CCC(Cc2cccnc2)CC1 [CBK306369] | 87.3
51 | COc1cc(CN2CCOC3(CCN(C(=O)OCc4ccccc4)CC3)C2)cc(OC)c1OC [CBK161104T] | 79.4
52 | CC(C)(C)OC(=O)NCc1ccc(-c2nnc(CC(=O)O)o2)cc1 [CBK169899D] | 96.5
53 | O=C(Cc1noc2ccccc12)Nc1ccc(N2CCCS2(=O)=O)cc1 [CBK304521] | 107
54 | CCCCCCSc1ccc(C(=O)CCCN2CCOCC2)cc1 [CBK010344] | 116
55 | Cc1cc(N2CCC(O)CC2)nc(N)n1 [CBK167265] | 109
56 | COCc1ccc(C(=O)N2CCC(c3cc4cnccc4[nH]3)CC2)o1 [CBK283073] | 90.9
57 | O=C(c1ccc2c(c1)CCO2)N1CCC(Sc2ccc(-c3ccccc3)cc2)CC1 [CBK131953] | 94.8
58 | O=C(CN1CCCCC1CN1CCOCC1)NCc1ccccn1 (stereo not drawn) [CBK304375] | 115
59 | CC(C)Cc1cc(CNS(=O)(=O)Cc2ccccc2F)on1 [CBK281505] | 96.6
60 | O=C(O)C1CSC(c2cccnc2)N1 (stereo not drawn) [CBK260910] | 111
61 | O=C(Nc1ccc(Cl)c(C(=O)O)c1)c1cccc(-n2cnnc2)c1 [CBK270016] | 86.5
62 | CCOC(=O)Cc1nc2ccccc2[nH]1 [CBK261674] | 102
63 | COc1cccc2c1OC(c1cccnc1)N1N=C(c3cccc(O)c3)CC21 (stereo not drawn) [CBK287747] | 104
64 | CCOc1cccc(-c2cn3ccnc3c(N3CCN(CCO)CC3)n2)c1 [CBK066612] | 95.9
65 | CCCCC(=O)/N=C(\N)Nc1nc2ccccc2o1 [CBK287937] | 87.8

same assay, conditions: human, hela cells, % viability, bulk resorufin, single well

Row | Structure (SMILES) | viability at 28.5 h, 10 µM [%]
66 | O=C(Nc1cccc(-c2ccc3c(c2)COC2(CCNCC2)O3)c1)c1cnccn1 [CBK093670] | 90.5
